Assay results published in patent publication US6664297B1, “Methods for inhibition and dissolution of amyloidoses by administration of compositions comprising 2,4-dinitrophenol” (priority 2000, dated 2003).
Structures can show the parent of a compound that is named as a salt. Each block holds one compound with its values, some of them ahead of it.

Experiments:
hippocampal neurons [1] = test: Cell viability of hippocampal neuron cultures by trypan blue exclusion; settings: no Aβ
Protocol: Hippocampi from 18-day-old rat embryos were dissected and cultured as previously described by Martins et al., Nat. Med., 3, 1376-82, 1997) with minor modifications. Cells were plated on glass coverslips previously coated with 1.5 μg/ml polyornithine (Sigma) in Basal Eagle's Medium (Gibco) enriched with 10% fetal calf serum (Hyclone) for the first 24 hours of culture. After that, proliferation of nonneuronal cells was inhibited with 10 μM arabinosyl cytoside and the serum concentration was lowered to 2%. Aβ1-42 (44 μM), in the absence or in the presence of nitrophenols, was added after 48 hours of culture and kept for three days. Control cultures consisting of neurons cultured in growth medium alone or in the presence of residual TFE (0.5% v/v) were also prepared. Daily observations were carried out during this period.
Cell viability in cultures incubated with or without Aβ (as described above) was assessed by trypan blue exclusion. Immediately before counting, the medium was removed, cultures were washed once with PBS and incubated for 5 min with 0.4% trypan blue. Randomly chosen fields were counted in a Zeiss Televal microscope. Percentages of live neurons are expressed relative to the total number of neurons observed in each field. Five independent fields were counted for each experimental condition (which were carried out in triplicate).

Aβ1-42 [2] = target: T1, Aβ1-42 (Homo sapiens, UniProt P05067); test: Transmission electron microscopy of Aβ1-42 fibril formation; format: biochemical
T1 construct: purchased Bachem Inc; host or cells: synthetic peptide
Protocol: Aggregated samples were also examined by transmission electron microscopy. In this case, Aβ (22 μM) was incubated in PBS in the absence or in the presence of nitrophenols, as indicated. After 48 hours, samples were stained with 1% uranyl acetate.
Confirmation that the light scattering intensity measurements were in fact related to the formation of amyloid fibrilar aggregates was made by transmission electron microscopy analysis using uranyl acetate staining.
An Aβ1-42 sample incubated for 2 days in the presence of 20 μM DNP is shown in FIG. 2C (Magnification: 52,500×).

amyloid deposits = target: T2, amyloid deposits (Homo sapiens, UniProt P05067); test: Rat model of cerebral Aβ deposition (intrahippocampal co-injection); format: in vivo; settings: 3 nmol Aβ1-42 co-injected with DNP 0.76 mM into hippocampus; 8 days; n=4, p=0.05
T2 construct: purchased Bachem Inc; host or cells: synthetic peptide
Protocol: To evaluate the effects of nitrophenols as inhibitors of amyloid deposition in vivo, we used a rat model of cerebral Aβ deposition. Aβ was injected alone or in the presence of DNP into the left or right hippocampi of rats, respectively, and the areas occupied by amyloid deposits in either side were measured on consecutive sections stained with thioflavin S. The experimental protocol used was designed to minimize the influence of individual variability in animal response by injecting Aβ into one hemisphere and Aβ plus DNP into the other hemisphere for each individual rat.
Male adult Wistar rats (280-320 g) were anesthetized with chloropent (3.3 ml/kg) and placed into a stereotaxic frame. The left hippocampus (standard coordinates: A 5.0; L 2.0; H 6.8) was injected with 3 nmol of Aβ1-42 (from a previously diluted stock in 55 μl of PBS containing 9% DMSO). A volume of 1.5 μl was administered at a constant flow rate during a time period of 15 minutes. […] Images were analyzed with ScionImage to measure the areas occupied by amyloid aggregates.
FIG. 5A is a schematic diagram of the injection protocol and representative hippocampal sections visualized by Thioflavine-S staining or autofluorescence, as indicated. FIGS. 5B-5E show quantitative analysis of the area of amyloid deposits in consecutive hippocampal sections as described above. […]

Aβ1-42 [3] = target: T1, Aβ1-42; test: Disaggregation of aggregated Aβ1-42 followed by 90° light scattering; format: biochemical; settings: for IC50: aggregated Aβ1-42, light scattering measured 1.5 hour after addition, 23° C., read-out: IC50 for disaggregation of Aβ; for inhibition at 200 µM: read-out: % decrease in light scattering
Protocol: (§1) Aβ peptides of different chain-lengths (Bachem Inc., Torrance, Calif., USA) were freshly dissolved from lyophilized powder in 50% (v/v) trifluoroethanol (TFE) in PBS. Aggregation was triggered by dilution of aliquots from the stock solution into PBS (resulting in ≦0.5% (v/v) residual TFE), and was followed as a function of time by light scattering measurements. Light scattering was measured in sealed cuvettes at 500 nm on ISS Inc. (Champaign, Ill., USA) PC1 or Hitachi F-4500 spectrofluorometers. […] Low temperature experiments were performed using a thermostated cell holder and flushing the cell compartment with N2 to avoid condensation. All results shown represent equilibrium light scattering values obtained for each sample.
Concentrated peptide stock solutions were prepared in 50% (v/v) trifluoroethanol. Aggregation was triggered by dilution in phosphate-buffered saline (PBS) and was followed by means of light-scattering measurements (FIGS. 1A, 1B, 1C), thioflavin T fluorescence (not shown) and electron microscopy (FIG. 2). Equilibrium light scattering values were used as an index of the extent of aggregation under different experimental conditions.
One class of compounds we tested were the nitrophenols. The disaggregation of Aβ1-42 by nitrophenols was determined. 3-nitrophenol (NP; O) or 2,4-dinitrophenol (DNP; □) were added to aggregated samples prepared as described above. Light scattering intensities were measured 1.5 hour after addition of the drugs. Symbols represent averages±S.D. from 3 experiments.
Further results for a series of aromatic compounds are shown in Table 1, at aromatic compound concentrations of 200 micromolar.

hippocampal neurons [4] = test: Aβ neurotoxicity in hippocampal neuron cultures, morphology by anti-Tau immunostaining; format: cell-based, rat; settings: Aβ1-42 44 μM, 72 hours
Protocol: In order to evaluate the efficacy of the phenol derivatives, control assays were also performed in the absence of the aromatic or heteroaromatic compounds described herein.
Med., 3, 1376-82, 1997) with minor modifications. […] Daily observations were carried out during this period.
Aβ1-42 (44 μM) was added to the culture medium containing neurons and incubation was continued for 72 hours. […] Furthermore, the remaining cell bodies of Aβ-treated neurons were attached to the plate, but their neurites were retracted and thin, and sometimes detached from the plate.

Aβ1-28 = target: T3, Aβ1-28 (Homo sapiens, UniProt P05067); test: Disaggregation of fibrillar Aβ1-28 by GdnHCl, light scattering; format: biochemical; settings: Aβ1-28 10 μM, 1 hour incubation
T3 construct: purchased Bachem Inc; host or cells: synthetic peptide
Protocol: as §1
(§2) Stabilities of the fibrillar amyloid aggregates of peptides Aβ1-28, Aβ1-42 and Aβ1-43 in the presence of guanidine hydrochloride were compared. Measurements of the reduction in light scattering intensity as a function of the concentration of guanidine hydrochloride were used as an index of amyloid aggregate dissolution. Samples were incubated for 1 hour in the presence of the indicated concentrations of GdnHCl prior to measurements. Different symbols correspond to Aβ1-28 (□), Aβ1-42 (O) and Aβ1-43 (Δ), and represent averages±S.D. from 3-5 determinations.

Aβ1-42 [5] = target: T1, Aβ1-42; test: Disaggregation of fibrillar Aβ1-42 by GdnHCl, light scattering; format: biochemical; settings: Aβ1-42 10 μM, 1 hour incubation
Protocol: as §1, §2

[6] = aromatic compound concentration 200 micromolar

T1 sequence (P05067 672-713): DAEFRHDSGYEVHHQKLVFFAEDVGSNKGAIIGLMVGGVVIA
T3 sequence (P05067 672-699): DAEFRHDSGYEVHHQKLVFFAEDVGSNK
T2 sequence (P05067 672-713): as the sequence (P05067 672-713) above

Structure (SMILES): O=[N+]([O-])c1ccc(O)c([N+](=O)[O-])c1 [2,4-dinitrophenol]
effect of compound alone on survival of neurons in culture (hippocampal neurons [1]; 20 μM DNP): no effects
fibrils seen by electron microscopy (Aβ1-42 [2]; Aβ1-42 22 μM incubated 2 days in PBS with 20 μM DNP): completely devoid of fibrils
reduction in the volume of amyloid deposits relative to Aβ injected alone (amyloid deposits): 86±17%
light scattering from Aβ suspensions (disaggregation of fibrillar amyloid) (Aβ1-42 [3]; DNP 20 μM): completely abolished light scattering
IC50 (Aβ1-42 [3]): ~7 µM
inhibition at 200 µM (Aβ1-42 [3]; [6]): 100%
protection against Aβ neurotoxicity (neuron morphology) (hippocampal neurons [4]; 20 μM DNP): marked protection against neurotoxicity

Structure (SMILES): Nc1cc(Cl)ccc1O [2-amino-4-chlorophenol]
inhibition at 200 µM (Aβ1-42 [3]; [6]): 12%

inhibition at 200 µM (Aβ1-42 [3]; [6]): 92%
Structure (SMILES): Nc1cc([N+](=O)[O-])ccc1O [2-amino-4-nitrophenol]

inhibition at 200 µM (Aβ1-42 [3]; [6]): 44%
Structure (SMILES): Nc1ccc([N+](=O)[O-])cc1O [2-amino-5-nitrophenol]

Structure (SMILES): Cc1ccc(O)cc1C [3,4-dimethyl-phenol]
inhibition at 200 µM (Aβ1-42 [3]; [6]): 40%

Structure (SMILES): Nc1cccc(O)c1 [3-amino-phenol]
inhibition at 200 µM (Aβ1-42 [3]; [6]): 18%

Structure (SMILES): O=[N+]([O-])c1cccc(O)c1 [3-nitrophenol]
effect of compound alone on survival of neurons in culture (hippocampal neurons [1]; 100 μM NP): no effects
fibrils seen by electron microscopy (Aβ1-42 [2]; Aβ1-42 22 μM incubated 2 days in PBS with 100 μM NP): completely devoid of fibrils
IC50 (Aβ1-42 [3]): ~80 µM
inhibition at 200 µM (Aβ1-42 [3]; [6]): 60%
protection against Aβ neurotoxicity (neuron morphology) (hippocampal neurons [4]; 100 μM NP): marked protection against neurotoxicity

Structure (SMILES): COc1ccc(N)cc1 [4-amino-anisole]
inhibition at 200 µM (Aβ1-42 [3]; [6]): 48%

Structure (SMILES): O=[N+]([O-])c1ccc(Br)cc1 [4-bromo-nitrobenzene]
% decrease in light scattering (Aβ1-42 [3]; [6]): 37%

Structure (SMILES): Oc1ccc(Br)cc1 [4-bromo-phenol]
inhibition at 200 µM (Aβ1-42 [3]; [6]): 25%

Structure (SMILES): Oc1ccc(Cl)cc1 [4-chloro-phenol]
inhibition at 200 µM (Aβ1-42 [3]; [6]): 20%

inhibition at 200 µM (Aβ1-42 [3]; [6]): 0%
Structure (SMILES): CCc1ccc(O)cc1 [4-ethyl-phenol]

Structure (SMILES): COc1ccc([N+](=O)[O-])cc1 [4-nitro-anisole]
inhibition at 200 µM (Aβ1-42 [3]; [6]): 49%

GdnHCl concentration for complete disaggregation (Aβ1-28): 3 M
GdnHCl concentration for full disaggregation (Aβ1-42 [5]): 5 to 6 M
Structure (SMILES): N=C(N)N [GdnHCl, guanidine hydrochloride]
